How the values were obtained:
[1] = molecular target: T1, human α1B-adrenoceptor (ADRA1B) expressed in HEK293 cells (Homo sapiens, UniProt P35368); assay: Dual-luciferase CRE reporter HTS assay, inhibition of PE-induced CRE activation (RIP); type: cell-based; settings: relative inhibitory potency = (RLU PE alone − RLU PE+antagonist)/RLU PE alone
T1 construct: eGFP; host or cells: HEK293 (transient, Lipofectamine 2000)
T1 sequence (P35368 1-520): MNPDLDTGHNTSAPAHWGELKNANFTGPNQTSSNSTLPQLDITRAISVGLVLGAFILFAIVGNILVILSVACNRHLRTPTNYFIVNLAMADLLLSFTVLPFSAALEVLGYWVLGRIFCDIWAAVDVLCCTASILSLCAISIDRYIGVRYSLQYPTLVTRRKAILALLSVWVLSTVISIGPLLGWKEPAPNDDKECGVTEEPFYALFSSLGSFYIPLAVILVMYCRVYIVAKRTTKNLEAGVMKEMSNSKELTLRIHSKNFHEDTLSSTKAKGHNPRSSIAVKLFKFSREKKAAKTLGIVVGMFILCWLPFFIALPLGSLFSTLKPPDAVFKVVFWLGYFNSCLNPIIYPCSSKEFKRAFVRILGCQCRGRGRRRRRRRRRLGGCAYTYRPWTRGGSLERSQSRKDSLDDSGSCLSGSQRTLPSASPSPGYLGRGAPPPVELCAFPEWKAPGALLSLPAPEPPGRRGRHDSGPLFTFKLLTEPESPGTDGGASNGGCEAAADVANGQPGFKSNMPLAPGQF
Description: (§1) Furthermore, the relative inhibitory potency (RIP) could be used to improve the readability of the results. Which was determined relative to that of PE-induced group ([…]), and calculated using the following formula [15]: RIP = (RLUPE alone − RLUPE+antagonist)/RLUPE alone(1)
(§2) HEK293 cells were plated at a density of 10^5 […] in 96-well plates in 100 μL of DMEM basic medium containing 10% fetal bovine serum, 100 U/mL penicillin, and 0.1 mg/mL streptomycin. After overnight incubation, human ADRA1-expression vectors, namely, ADRA1A, ADRA1B, and ADRA1D, were co-transfected with reporter vectors (CRE, SRE, AP1, NFAT, and NF-кB) and pGL4.74 [hRluc/TK] (included as a control for transfection efficiency) using Lipofectamine 2000 transfection reagent (Invitrogen Life Technologies, Carlsbad, CA, USA). The medium was removed after 4 h and replaced with high-glucose DMEM for 18 h. Cells were then treated with agonists (at concentrations of 0.01–20 μM) and incubated for 8 h.
(§3) Firefly and Renilla luciferase activities, which are indicated as RLUs, were determined using Dual-Glo luciferase assay kits (Promega) according to the manufacturer’s instructions. RLUs were measured using a luminometer (GloMaxTM 96-Microplate Luminometer, Promega) and are reported as the mean ± SEM of three individual experiments. For agonists, fold of induction = RLUinduced/RLUuninduced. For antagonists, % of control = 100 × RLU (agonist + antagonist)/RLU(agonist alone). All RLUs were normalized against firefly RLUs/Renilla RLUs. […] The pKB of the antagonist was calculated by plotting log (dose ratio–1) against the antagonist dose (μM) and subjecting the data to Schild regression, where the intercept of the x-axis represents the pKB.

[2] = molecular target: T2, human α1D-adrenoceptor (ADRA1D) expressed in HEK293 cells (Homo sapiens, UniProt P25100); assay: as above; type: cell-based; settings: relative inhibitory potency = (RLU PE alone − RLU PE+antagonist)/RLU PE alone
T2 construct: eGFP; host or cells: HEK293 (transient, Lipofectamine 2000)
T2 sequence (P25100 1-572): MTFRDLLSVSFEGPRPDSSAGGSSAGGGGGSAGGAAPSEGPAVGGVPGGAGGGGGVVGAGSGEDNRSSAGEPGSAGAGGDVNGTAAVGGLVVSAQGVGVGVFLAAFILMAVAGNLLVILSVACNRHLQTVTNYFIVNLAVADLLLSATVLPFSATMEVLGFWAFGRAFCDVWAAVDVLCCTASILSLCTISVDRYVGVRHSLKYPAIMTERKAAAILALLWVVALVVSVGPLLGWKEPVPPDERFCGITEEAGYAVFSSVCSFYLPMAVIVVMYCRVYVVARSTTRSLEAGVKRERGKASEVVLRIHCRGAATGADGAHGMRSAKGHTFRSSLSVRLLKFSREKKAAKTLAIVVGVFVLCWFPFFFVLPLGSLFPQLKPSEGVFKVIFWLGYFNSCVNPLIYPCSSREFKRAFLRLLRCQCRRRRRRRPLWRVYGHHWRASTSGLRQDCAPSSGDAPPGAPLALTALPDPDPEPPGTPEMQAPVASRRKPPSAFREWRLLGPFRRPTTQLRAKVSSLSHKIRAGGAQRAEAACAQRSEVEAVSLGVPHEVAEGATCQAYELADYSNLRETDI
Description: as §1, §2, §3

[3] = molecular target: T3, human α1A-adrenoceptor (ADRA1A) expressed in HEK293 cells (Homo sapiens, UniProt P35348); assay: as above; type: cell-based; settings: relative inhibitory potency = (RLU PE alone − RLU PE+antagonist)/RLU PE alone
T3 construct: eGFP; host or cells: HEK293 (transient, Lipofectamine 2000)
T3 sequence (P35348 1-466): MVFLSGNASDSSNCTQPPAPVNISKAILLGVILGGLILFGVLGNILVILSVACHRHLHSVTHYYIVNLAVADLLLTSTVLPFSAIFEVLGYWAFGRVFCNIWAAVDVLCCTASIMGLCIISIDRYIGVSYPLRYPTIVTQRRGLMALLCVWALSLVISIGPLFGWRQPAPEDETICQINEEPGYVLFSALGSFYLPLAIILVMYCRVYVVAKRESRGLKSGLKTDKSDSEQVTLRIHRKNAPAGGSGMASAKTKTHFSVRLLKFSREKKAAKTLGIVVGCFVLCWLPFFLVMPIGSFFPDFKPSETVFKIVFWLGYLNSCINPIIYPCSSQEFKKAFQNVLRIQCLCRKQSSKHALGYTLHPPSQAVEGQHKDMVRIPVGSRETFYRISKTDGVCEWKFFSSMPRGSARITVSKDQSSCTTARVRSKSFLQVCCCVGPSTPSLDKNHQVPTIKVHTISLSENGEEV
Description: as §1, §2, §3

[4] = test system: α1-ARs (α1A, α1B, and α1D); assay: Dual-luciferase CRE reporter HTS assay, agonist mode, summary over subtypes; type: cell-based, human; settings: for EC50: range over the three subtypes and both compounds, read-out: EC50, agonistic activities on α1-ARs (α1A, α1B, and α1D)
Description: as §2, §3

[5] = molecular target: T1, human α1B-adrenoceptor (ADRA1B) expressed in HEK293 cells; assay: Dual-luciferase CRE reporter HTS assay, agonist mode; type: cell-based; settings: HEK293, 8 h, read-out: EC50 α1B (agonistic activity)
Description: as §2, §3

[6] = molecular target: T2, human α1D-adrenoceptor (ADRA1D) expressed in HEK293 cells; assay: as above; type: cell-based; settings: HEK293, 8 h, read-out: EC50 α1D (agonistic activity)
Description: as §2, §3

[7] = test system: human prostate cancer cell lines (PC-3, LNCaP and DU145); assay: CCK-8 assay, summary over tested cancer cell lines; type: cell-based; settings: range over PC-3, LNCaP, DU145 and both compounds, read-out: IC50, cytotoxic activities against tested cancer cell lines
Description: (§4) Cell proliferation was measured with the Cell Counting Kit-8 (CCK-8) assay kit (Dojindo Corp., Kumamoto, Japan). Cells were harvested during logarithmic growth phase and seeded in 96-well plates at a density of 1 × 10^5 cells/mL, and cultured at 37 °C in a humidified incubator (5% CO2) for 24 h, followed by exposure to various concentrations of compounds tested for 24 h. Subsequently 10 μL of CCK-8 (Dojindo) was added to each well, the cells were then incubated for an additional 1 h at 37 °C to convert WST-8 into formazan. Cell growth inhibition was determined by measuring the absorbance (Abs) at λ = 450 nm using amicroplate reader. Three independent experiments were performed. Cell growth inhibition was calculated according to the following equation: Growth inhibition = (1 − OD of treated cells/OD of control cells) × 100% (2)
(§5) The half maximal inhibitory concentrations (IC50) were obtained from liner regression analysis of the concentration-response curves plotted for each tested compound.

[8] = test system: PC-3 human prostate cancer cell line; assay: CCK-8 assay, cytotoxic / anti-proliferative activity; type: cell-based; settings: CCK-8, 24 h exposure, mean ± SD, three experiments
Description: as §4, §5

[9] = test system: RWPE-1 human prostate epithelial cell line; assay: as above; type: cell-based; settings: for cytotoxic effects on human epithelial prostate normal cells RWPE-1: CCK-8; for IC50: Homo sapiens, RWPE-1, CCK-8, 24 h exposure, mean ± SD, three experiments
Description: as §4, §5

[10] = test system: DU145 human prostate cancer cell line; assay: as above; type: cell-based; settings: DU-145, CCK-8, 24 h exposure, mean ± SD, three experiments
Description: as §4, §5

[11] = test system: LNCaP human prostate cancer cell line; assay: as above; type: cell-based; settings: CCK-8, 24 h exposure, mean ± SD, three experiments
Description: as §4, §5

[12] = molecular target: T3, human α1A-adrenoceptor (ADRA1A) expressed in HEK293 cells; assay: Dual-luciferase CRE reporter HTS assay, agonist mode; type: cell-based; settings: HEK293, 8 h, read-out: EC50 α1A (agonistic activity)
Description: as §2, §3

α1-ARs (α1A, α1B, α1D) = settings: α1-AR subtype selectivity, cited from earlier work

| RIP Values (Mean ± S.E.M, n = 4) α1B [1] | RIP Values (Mean ± S.E.M, n = 4) α1D [2] | RIP Values (Mean ± S.E.M, n = 4) α1A [3] | EC50 [6] [µM] | Compound | IC50 [8] [µM] | IC50 [9] [µM] | IC50 [10] [µM] | IC50 [11] [µM] | other results |
| --- | --- | --- | --- | --- | --- | --- | --- | --- | --- |
| 0.63 ± 0.07 | 0.51 ± 0.09 | 0.83 ± 0.03 |  | COc1ccccc1N1CCN(CCCNc2c(C)c(=O)n(C)c(=O)n2C)CC1 [5-Methylurapidil, 5-methylurapidil] |  |  |  |  |  |
| 0.77 ± 0.02 | 0.93 ± 0.01 | 0.79 ± 0.09 |  | COc1ccccc1N1CCN(CC(O)COc2cccc3ccccc23)CC1 (stereo not drawn) [Naftopidil, naftopidil, reference compound] | 42.1 ± 0.79 | 52 ± 1.51 | 34.58 ± 0.31 | 22.4 ± 0.61 |  |

Continued, molecule first:

| Compound | RIP Values (Mean ± S.E.M, n = 4) α1B [1] | RIP Values (Mean ± S.E.M, n = 4) α1D [2] | RIP Values (Mean ± S.E.M, n = 4) α1A [3] | EC50 [6] [µM] | IC50 [8] [µM] | IC50 [9] [µM] | IC50 [10] [µM] | IC50 [11] [µM] | other results |
| --- | --- | --- | --- | --- | --- | --- | --- | --- | --- |
| Cc1ccc(S(=O)(=O)OCCc2ccc(CN3C(=O)c4ccccc4C3=O)cc2)cc1 [CHE3] |  |  |  | 47.2 | 91.3 ± 1.13 | 30.7 ± 0.66 | 11.1 ± 1.07 | 47 ± 1.24 | EC50 [4]: 25.3 to 47.2 µM; subtype selectivity in the HTS assay ([4]; α1A, α1B, α1D): did not display significant subtype selectivity; EC50 [5]: 42.7 µM; IC50 [7]: 11.1 to 91.3 µM; cytotoxic effects on human epithelial prostate normal cells RWPE-1 [9]: exhibited cytotoxic effects |
| Cc1ccc(S(=O)(=O)OCCc2ccc(COc3ccc4c(c3)OCO4)cc2)cc1 [CHK3] |  |  |  | 34.3 | 55.3 ± 1.09 | 31.7 ± 0.61 | 39.1 ± 0.81 | 51.5 ± 1.08 | EC50 [4]: 25.3 to 47.2 µM; EC50 [5]: 35.2 µM; EC50 [12]: 42.5 µM; IC50 [7]: 11.1 to 91.3 µM; cytotoxic effects on human epithelial prostate normal cells RWPE-1 [9]: exhibited cytotoxic effects |
| COc1cc2nc(N3CCN(C(=O)OCc4ccccc4)[C@H](C(=O)NC(C)(C)C)C3)nc(N)c2cc1OC [Compound L-765314] | 0.86 ± 0.01 | 0.30 ± 0.11 | 0.53 ± 0.08 |  |  |  |  |  |  |
| CNC[C@H](O)c1cccc(O)c1 [Phenylephrine, phenylephrine, reference compound] |  |  |  | 2.68 |  |  |  |  |  |
| COc1cc2nc(N3CCN(C(=O)C4CCCO4)CC3)nc(N)c2cc1OC (stereo not drawn) [Terazosin, terazosin] | 0.91 ± 0.02 | 0.49 ± 0.02 | 0.89 ± 0.05 |  |  |  |  |  | Reported Selectivity (α1-ARs (α1A, α1B, α1D)): Nonselective [17]; Reported Selectivity (Table S1) (α1-ARs (α1A, α1B, α1D); ref 2 (supplement)): Nonselective |

— paper PMC6270864, “Identification of Two Novel α1-AR Agonists Using a High-Throughput Screening Model” (Molecules, 2014)
